Reference: patent publication US8642788B2, “Activators of executioner procaspases 3, 6 and 7” (The Regents of the University of California, priority 2008, dated 2014)

Assays:
[1] = target: T1, procaspase-3 (Homo sapiens, UniProt P42574); assay: Executioner procaspase-3 activation assay (Ac-DEVD-AFC fluorogenic substrate); type: biochemical; conditions: incubation with compound for 5 h at 37° C.; 100 nM procaspase; read-out: Procaspase Activation 3
T1 construct: His6 (C); made in house; host or cells: E. coli BL21(DE3)RP, pET-23b
T1 sequence (P42574 1-277): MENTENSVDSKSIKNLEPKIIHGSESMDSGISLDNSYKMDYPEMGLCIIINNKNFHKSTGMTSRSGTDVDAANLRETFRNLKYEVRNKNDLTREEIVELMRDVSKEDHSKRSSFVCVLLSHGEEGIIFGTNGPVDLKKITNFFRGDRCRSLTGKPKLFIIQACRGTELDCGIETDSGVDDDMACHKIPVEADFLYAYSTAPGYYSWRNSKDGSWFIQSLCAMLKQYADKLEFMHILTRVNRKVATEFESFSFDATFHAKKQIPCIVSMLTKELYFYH
Description: The executioner procaspase-3, -6 and -7 activation assay protocol involves incubating the target protein at the physiologically-relevant concentration of 100 nM with activating compounds (ranging from 100 nM to 100 uM) in a total volume of 50 μL consisting of a reaction buffer of 50 mM HEPES, pH 7.4, 50 mM KCl, 1 mM DTT and 0.01% Triton-X100 (to reduce false positive hits due to compound aggregation). […] All components of the assay including protein, substrate and inhibitor are stored as frozen aliquots and thawed immediately prior to the assay.

[2] = target: T2, procaspase-6 (Homo sapiens, UniProt P55212); assay: Executioner procaspase-6 activation assay (Ac-VEID-AFC fluorogenic substrate); type: biochemical; conditions: incubation with compound for 5 h at 37° C.; 100 nM procaspase
T2 sequence (P55212 1-293): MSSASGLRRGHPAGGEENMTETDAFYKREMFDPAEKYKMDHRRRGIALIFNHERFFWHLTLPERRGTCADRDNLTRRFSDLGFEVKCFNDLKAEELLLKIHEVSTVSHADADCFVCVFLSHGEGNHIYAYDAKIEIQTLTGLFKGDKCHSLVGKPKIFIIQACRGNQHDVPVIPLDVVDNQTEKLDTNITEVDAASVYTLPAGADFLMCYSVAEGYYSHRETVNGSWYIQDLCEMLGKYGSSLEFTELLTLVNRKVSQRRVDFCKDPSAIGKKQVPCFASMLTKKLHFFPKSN
Description: The executioner procaspase-3, -6 and -7 activation assay protocol involves incubating the target protein at the physiologically-relevant concentration of 100 nM with activating compounds (ranging from 100 nM to 100 uM) in a total volume of 50 μL consisting of a reaction buffer of 50 mM HEPES, pH 7.4, 50 mM KCl, 1 mM DTT and 0.01% Triton-X100 (to reduce false positive hits due to compound aggregation). The procaspase/small molecule incubations are then agitated at 37° C. and assayed at various time points by addition of the fluorogenic peptide substrate 7-Amino-4-trifluoromethylcoumarin-DEVD (Ac-DEVD-AFC) (procaspases-3, -7) or Ac-VEID-AFC (procaspase-6) to a final concentration of 25 μM and analyzed by a kinetic 30 minute assay (excitation 365 nm and emission 495 nm). The final concentration of DMSO in each well is 3% and has no effect on enzyme stability or activity. […] All components of the assay including protein, substrate and inhibitor are stored as frozen aliquots and thawed immediately prior to the assay.
Tables 1 and 2. Procaspase activation as a result of incubation with compound for 5 h at 37° C. (+++ EC50˜0.5-10 μM; ++ EC50˜10-50 μM; + EC50˜50-200 μM; -no activation observed; ND not determined).

SMILES	EC50 [1]	EC50 [2]
O=C(Nc1cccc(-c2cn3ccccc3n2)c1)c1cc2cccc(OC(F)(F)F)c2oc1=O [1541B, 2-Oxo-8-trifluoromethoxy-2H-chromene-3-carboxylic acid (3-imidazo[1,2-a]pyridin-2-yl-phenyl)-amide]	> 100 µM	> 100 µM
COc1cc(CN2CCOCC2)c2oc(=O)c(C(=O)Nc3cccc(-c4cn5ccccc5n4)c3)cc2c1 [1541D, 6-Methoxy-8-morpholin-4-ylmethyl-2-oxo-2H-chromene-3-carboxylic acid (3-imidazo[1,2-a]pyridin-2-yl-phenyl)-amide]	> 100 µM	> 100 µM
COc1cccc2cc(C(=O)Nc3cccc(-c4nc5ccccc5[nH]4)c3)c(=O)oc12 [1541F, 8-Methoxy-2-oxo-2H-chromene-3-carboxylic acid [3-(1H-benzoimidazol-2-yl)-phenyl]-amide]	> 100 µM	> 100 µM
COc1cccc2cc(C(=O)Nc3ccccc3)c(=O)oc12 [1541H, 8-Methoxy-2-oxo-2H-chromene-3-carboxylic acid phenylamide]	> 100 µM	> 100 µM
COc1cccc2cc(C(=O)Nc3cccc(N4CCOCC4)c3)c(=O)oc12 [1541I, 8-Methoxy-2-oxo-2H-chromene-3-carboxylic acid (3-morpholin-4-yl-phenyl)-amide]	> 100 µM	> 100 µM
O=C(Nc1cccc(-c2cn3ccccc3n2)c1)c1cc2ccc(O)c(O)c2oc1=O [compound 3, 7,8-Dihydroxy-2-oxo-2H-chromene-3-carboxylic acid (3-imidazo[1,2-a]pyridin-2-yl-phenyl)-amide]	50 to 200 µM	> 100 µM
CCOc1cccc2cc(C(=O)Nc3cccc(-c4cn5ccccc5n4)c3)c(=O)oc12 [compound 5, 8-Ethoxy-2-oxo-2H-chromene-3-carboxylic acid (3-imidazo[1,2-a]pyridin-2-yl-phenyl)-amide]	> 100 µM	> 100 µM
O=C(Nc1cccc(-c2cn3ccccc3n2)c1)c1cc2cc(O)c(O)cc2oc1=O [compound 7, 6,7-Dihydroxy-2-oxo-2H-chromene-3-carboxylic acid (3-imidazo[1,2-a]pyridin-2-yl-phenyl)-amide]	> 100 µM	> 100 µM
COc1ccc2cc(C(=O)Nc3cccc(-c4cn5ccccc5n4)c3)c(=O)oc2c1OC [compound 8, 7,8-Dimethoxy-2-oxo-2H-chromene-3-carboxylic acid (3-imidazo[1,2-a]pyridin-2-yl-phenyl)-amide]	> 100 µM	–
O=C(Nc1cccc(-c2cn3ccccc3n2)c1)c1cc2cc(OC(F)(F)F)ccc2oc1=O [compound 9, 6-Trifluoromethoxy-2-oxo-2H-chromene-3-carboxylic acid (3-imidazo[1,2-a]pyridin-2-yl-phenyl)-amide]	> 100 µM	> 100 µM
COc1cc(N2CCOCC2)c2oc(=O)c(C(=O)Nc3cccc(-c4cn5ccccc5n4)c3)cc2c1 [compound 14, 6-Methoxy-8-morpholin-4-yl-2-oxo-2H-chromene-3-carboxylic acid (3-imidazo[1,2-a]pyridin-2-yl-phenyl)-amide]	> 100 µM	> 100 µM
COc1cccc2cc(C(=O)Nc3cccc(-c4ccncc4)c3)c(=O)oc12 [compound 20, 8-Methoxy-2-oxo-2H-chromene-3-carboxylic acid (3-pyridin-4-yl-phenyl)-amide]	> 100 µM	> 100 µM
COc1cccc2cc(C(=O)Nc3cccc(-c4cn5ccccc5n4)c3)oc12 [compound 179, 7-Methoxy-benzofuran-2-carboxylic acid (3-imidazo[1,2-a]pyridin-2-yl-phenyl)-amide]	10 to 50 µM	10 to 50 µM
O=C(Nc1cccc(-c2cn3ccccc3n2)c1)C1=Cc2cc(Cl)ccc2OC1 [compound 180, 6-Chloro-2H-chromene-3-carboxylic acid (3-imidazo[1,2-a]pyridin-2-yl-phenyl)-amide]	50 to 200 µM	> 100 µM
COc1cccc2cc(C(=O)Nc3ccc(-c4nc5ccccc5[nH]4)cc3)c(=O)oc12 [compound 183, 8-Methoxy-2-oxo-2H-chromene-3-carboxylic acid [4-(1H-benzoimidazol-2-yl)-phenyl]-amide]	0.5 to 10 µM	–
COc1cccc2cc(C(=O)Nc3cccc(-c4cn5ccccc5n4)c3)c(=O)oc12 [compound 1541, 8-Methoxy-2-oxo-2H-chromene-3-carboxylic acid (3-imidazo[1,2-a]pyridin-2-yl-phenyl)-amide]	–	0.5 to 10 µM

Second part, the molecule after the results:

EC50 [1]	EC50 [2]	SMILES
0.5 to 10 µM	> 100 µM	O=C(Nc1cccc(-c2cn3ccccc3n2)c1)c1cc2cccc(O)c2oc1=O [1541A, 8-Hydroxy-2-oxo-2H-chromene-3-carboxylic acid (3-imidazo[1,2-a]pyridin-2-yl-phenyl)-amide]
> 100 µM	> 100 µM	COc1ccc2cc(C(=O)Nc3cccc(-c4cn5ccccc5n4)c3)c(=O)oc2c1 [1541C, 7-Methoxy-2-oxo-2H-chromene-3-carboxylic acid (3-imidazo[1,2-a]pyridin-2-yl-phenyl)-amide]
50 to 200 µM	50 to 200 µM	O=C(Nc1cccc(-c2cn3ccccc3n2)c1)c1cc2cc(Br)ccc2oc1=O [compound 1, 6-Bromo-2-oxo-2H-chromene-3-carboxylic acid (3-imidazo[1,2-a]pyridin-2-yl-phenyl)-amide]
0.5 to 10 µM	0.5 to 10 µM	O=C(Nc1cccc(-c2cn3ccccc3n2)c1)c1cc2cccc(F)c2oc1=O [compound 2, 8-Fluoro-2-oxo-2H-chromene-3-carboxylic acid (3-imidazo[1,2-a]pyridin-2-yl-phenyl)-amide]
> 100 µM	> 100 µM	O=C(Nc1cccc(-c2cn3ccccc3n2)c1)c1cc2cccc(Br)c2oc1=O [compound 4, 8-Bromo-2-oxo-2H-chromene-3-carboxylic acid (3-imidazo[1,2-a]pyridin-2-yl-phenyl)-amide]
> 100 µM	> 100 µM	COc1ccc2oc(=O)c(C(=O)Nc3cccc(-c4cn5ccccc5n4)c3)cc2c1 [compound 6, 6-Methoxy-2-oxo-2H-chromene-3-carboxylic acid (3-imidazo[1,2-a]pyridin-2-yl-phenyl)-amide]
> 100 µM	> 100 µM	O=C(Nc1cccc(-c2cn3ccccc3n2)c1)c1cc2cc(I)ccc2oc1=O [compound 10, 6-Iodo-2-oxo-2H-chromene-3-carboxylic acid (3-imidazo[1,2-a]pyridin-2-yl-phenyl)-amide]
> 100 µM	> 100 µM	O=C(Nc1cccc(-c2cn3ccccc3n2)c1)c1cc2cc(O)ccc2oc1=O [compound 11, 6-Hydroxy-2-oxo-2H-chromene-3-carboxylic acid (3-imidazo[1,2-a]pyridin-2-yl-phenyl)-amide]
> 100 µM	–	O=C(Nc1cccc(-c2cn3ccccc3n2)c1)c1cc2ccccc2oc1=O [compound 13, 2-oxo-2H-chromene-3-carboxylic acid (3-imidazo[1,2-a]pyridin-2-yl-phenyl)-amide]
10 to 50 µM	10 to 50 µM	O=C(Nc1cccc(-c2cn3ccccc3n2)c1)c1cc2ccccc2[nH]c1=O [compound 181, 2-Oxo-1,2-dihydro-quinoline-3-carboxylic acid (3-imidazo[1,2-a]pyridin-2-yl-phenyl)-amide]
